Assay results as given in patent US8895752B2, “Alkylsulfonyl-substituted thiazolide compounds” (priority 2007, dated 2014).
Where two headings read alike, the source gives them in different places.

Key:
[1] = Cytotoxicity by neutral red dye uptake in AVA5 cells; assay type: cell-based; conditions: human, Genotype 1b replicon
[2] = system: HCV replicon H/FL-Neo, genotype 1a full length; test: HCV replicon assay in Huh7 cells containing H/FL-Neo; assay type: cell-based, Hepatitis C Virus; conditions: for EC50 / EC90: Hepatitis C virus, Huh-7
Protocol: (§1) Antiviral activity of test compounds was assessed in a 3-day assay using the stably-expressing HCV replicon cell line, AVA5 (sub-genomic CON1, genotype 1b) (Blight et al., 2000) maintained as sub-confluent cultures on 96-well plates as previously described (Okuse et al., 2005). Antiviral activity was determined by blot hybridization analysis of intracellular HCV RNA (normalized to the level of cellular B-actin RNA in each culture sample) and cytotoxicity was assessed by neutral red dye uptake after 3 days of treatment. Additional studies were performed using Huh7 cells containing another HCV replicon, H/FL-Neo, a genotype 1a full length construct (Blight et al., 2003). For studies involving human serum, standard culture medium (which contains 10% fetal bovine serum) and assay conditions were maintained.
(§2) EC50, EC90 and CC50 values (±standard deviations [S.D.]) were calculated by linear regression analysis using data combined from all treated cultures (Korba and Gerin, 1992; Okuse et al., 2005). […] Selectivity index (S.I.) was calculated as CC50/EC90 for HBV assays and CC50/EC50 for HCV assays. EC90 values were used for calculation of the S.I. in HBV assays since at least a […] depression of HBV DNA levels is typically required to achieve statistical significance in this assay system (Korba and Gerin, 1992). For combination treatments, EC50, EC90, CC50 and S.I. are presented for the first compound listed. The molar ratio of the compounds in each combination is also indicated.

[3] = system: HCV replicon, sub-genomic CON1, genotype 1b; test: 3-day HCV replicon assay in AVA5 cells (intracellular HCV RNA, blot hybridization); assay type: cell-based, Hepatitis C Virus; conditions: for Selectivity Index / EC50 / EC90: Genotype 1b replicon; for Selectivity Index: CC50/EC50; for EC50 / EC90: 3 days, first compound listed for combinations
Protocol: as §1, §2

[4] = Cytotoxicity by neutral red dye uptake in Huh7 cells containing H/FL-Neo; assay type: cell-based; conditions: human; Genotype 1a replicon
HCV replication = test: HCV replicon assay, 6 days total duration, NTZ monotherapy pre-treatment and combination therapy; assay type: cell-based; conditions: Hepatitis C virus, 144 h, first named drug for combinations
Protocol: as §1, with “Antiviral activity of test compounds was assessed in a 3-day assay using the stably-expressing” left out
as §2

HCV replicon genotype 1B = test: Secondary HCV replicon cell assay, genotype 1B; assay type: cell-based, Hepatitis C Virus
Description: (§3) Table 10 presents data from the secondary HCV replicon cell assays using genotypes 1B and 1A.

HCV replicon genotype 1A = test: Secondary HCV replicon cell assay, genotype 1A; assay type: cell-based, Hepatitis C Virus
Description: as §3

HBV = HBV antiviral assay in confluent 2.2.15 cell cultures (HBV DNA, quantitative blot hybridization); assay type: cell-based, Hepatitis B Virus
Protocol: EC50, EC90 and CC50 values (±standard deviations [S.D.]) were calculated by linear regression analysis using data combined from all treated cultures (Korba and Gerin, 1992; Okuse et al., 2005). […] Selectivity index (S.I.) was calculated as CC50/EC90 for HBV assays and CC50/EC50 for HCV assays. EC90 values were used for calculation of the S.I. in HBV assays since at least a 3-fold depression of HBV DNA levels is typically required to achieve statistical significance in this assay system (Korba and Gerin, 1992).

[5] = system: HCV replicon cells, genotype 1B; test: Secondary HCV replicon cell assay, genotype 1B, cytotoxicity; assay type: cell-based
Description: as §3

HCV replicon = test: Primary HCV replicon cell assay; assay type: cell-based, Hepatitis C Virus; conditions: Hepatitis C virus
Protocol: as §1, §2

[6] = Primary HCV replicon cell assay, cytotoxicity; conditions: human, HCV replicon cells (primary assay), CC50, primary assay
Protocol: as §1, §2

[7] = system: HCV replicon cells, genotype 1A; test: Secondary HCV replicon cell assay, genotype 1A, cytotoxicity; assay type: cell-based
Description: as §3

[8] = Cytotoxicity by neutral red dye uptake in 2.2.15 cells; conditions: human
Protocol: (§4) HBV antiviral assays were conducted as previous described (Korba and Gerin, 1992).
as §2

HBV RNA = test: Intracellular HBV RNA by quantitative northern blot hybridization in 2.2.15 cells; assay type: cell-based, Hepatitis B Virus
Protocol: (§5) Cultures of 2.2.15 cells were treated under standard procedures and semi-quantitative EIA-based analysis of HBV proteins was performed as previously described (Korba and Gerin, 1995), except that HBeAg was analyzed ETI-EBK Plus® (DiaSorin, Inc., Stillwater, Minn. USA). Samples were diluted (2 to 10-fold) to bring levels into the dynamic response ranges of the EIA's. HBsAg, and HBeAg were analyzed from culture medium samples and HBcAg was analyzed from intracellular lysates. Intracellular HBV RNA was assessed by quantitative northern blot hybridization (Korba and Gerin, 1995).

HBV Mutant L180M = test: 5-day transient transfection assay in Huh7 cells, intracellular HBV RI by Southern blot; assay type: cell-based, Hepatitis B Virus
Protocol: (§6) Activity against LMV-resistant (Allen et al., 1998) and ADV-resistant (Angus et al., 2003) HBV mutants was performed in a 5-day assay using a transient transfection method as previously described (Iyer et al., 2004). Antiviral activity was determined by quantitative Southern blot hybridization of intracellular HBV DNA replication intermediates (HBV RI).

HBV Mutant L180M/M204V = test: as above; assay type: cell-based, Hepatitis B Virus
Protocol: as §6

HBV Mutant M204I = test: as above; assay type: cell-based, Hepatitis B Virus
Protocol: as §6

HBV Mutant M204V = test: as above; assay type: cell-based, Hepatitis B Virus
Protocol: as §6

HBV Mutant N236T = test: as above; assay type: cell-based, Hepatitis B Virus
Protocol: as §6

HBeAg = test: Semi-quantitative EIA of HBV proteins in 2.2.15 culture medium; assay type: cell-based, Hepatitis B Virus
Protocol: as §5

HBsAg = test: as above; assay type: cell-based, Hepatitis B Virus
Protocol: as §5

Wild-type HBV = test: 5-day transient transfection assay in Huh7 cells, intracellular HBV RI by Southern blot; assay type: cell-based, Hepatitis B Virus
[9] = oral 500 mg tablet; cited from earlier work
2.2.15 cells = test: Cytotoxicity by neutral red dye uptake in 2.2.15 cells
Protocol: as §4, §2

HBcAg = test: Semi-quantitative EIA of HBV proteins in 2.2.15 intracellular lysates; assay type: cell-based, Hepatitis B Virus
Protocol: as §5

AVA5 cells = test: Cytotoxicity by neutral red dye uptake in AVA5 cells; assay type: cell-based; conditions: Genotype 1b replicon, 3 days
[10] = system: LMV-resistant and ADV-resistant HBV mutants; test: Activity against drug-resistant HBV mutants, transient transfection in Huh7 cells (overall statement); assay type: cell-based, Hepatitis B Virus; conditions: all drug-resistant viruses tested
Protocol: as §6

[11] = AVA5 cells (HCV replicon, sub-genomic CON1)
[12] = Hepatitis B virus, read-out: Intracellular HBV RI EC50
[13] = Hepatitis B virus, 2.2.15 cells, nine daily doses, read-out: Extracellular virion DNA EC50

Compound: C[C@@]1(O)[C@H](O)[C@@H](CO)O[C@H]1n1ccc(N)nc1=O [2′CmeC, 2′-C-methyl cytidine]
- CC50 at 3 days [1, 11]: > 300000 nM
- Selectivity Index ([2]; Genotype 1a replicon, CC50/EC50): >167
- EC50 ([2]; Genotype 1a replicon): 1800 ± 200 nM
- EC90 ([2]; Genotype 1a replicon): 8100 ± 800 nM
- Selectivity Index [3]: >188
- EC50 ([3]; Hepatitis C virus, Ava5, 72 h): 1600 ± 200 nM
- EC90 ([3]; Hepatitis C virus, Ava5, 72 h): 8300 ± 700 nM
- CC50 at 3 days [4]: > 300000 nM
- EC50 (HCV replication): 1300 ± 200 nM
- EC90 (HCV replication): 5800 ± 900 nM

Compound: CS(=O)(=O)c1cnc(NC(=O)c2ccccc2O)s1 [Compound 6, 2-hydroxy-N-(5-(methylsulfonyl)thiazol-2-yl)benzamide]
- CC50 at 3 days [1, 11]: 2800 ± 300 nM
- Selectivity Index [3]: 74
- EC50 ([3]; Hepatitis C virus, Ava5, 72 h): 40 ± 5 nM
- EC90 ([3]; Hepatitis C virus, Ava5, 72 h): 590 ± 70 nM
- activity against HCV ([3]; among the other thiazolides): exhibited activity
- EC50 (HCV replicon genotype 1B): 890 nM
- EC90 (HCV replicon genotype 1B; Hepatitis C virus): 8800 nM
- EC50 (HCV replicon genotype 1A): 800 nM
- EC90 (HCV replicon genotype 1A): 3400 nM
- EC50 (HBV; [12]): > 10000 nM
- EC50 (HBV; [13]): > 10000 nM
- EC90 (HBV; Hepatitis B virus, 2.2.15 cells, nine daily doses, read-out: Extracellular virion DNA EC90): > 10000 nM
- EC90 (HBV; Hepatitis B virus, 2.2.15 cells, nine daily doses, read-out: Intracellular HBV RI EC90): > 10000 nM
- CC50 [5]: > 10000 nM
- EC50 (HCV replicon): 1500 nM
- EC90 (HCV replicon): 5200 nM
- CC50 at 3 days [6]: 43000 nM
- CC50 [7]: > 10000 nM
- CC50 at 9 days [8]: > 100000 nM

Compound: CC(=O)Oc1ccccc1C(=O)Nc1ncc([N+](=O)[O-])s1 [NTZ, nitazoxanide]
- CC50 at 3 days [1]: 38000 ± 1800 nM
- antiviral activity against full length genotype 1a replicon compared with AVA5 cells (genotype 1b) [2]: equivalent
- EC50 ([2]; Genotype 1a replicon): 330 ± 50 nM
- EC90 ([2]; Genotype 1a replicon): 1100 ± 100 nM
- EC50 ([3]; Hepatitis C virus, Ava5, 72 h): 210 ± 30 nM
- EC90 ([3]; Hepatitis C virus, Ava5, 72 h): 930 ± 110 nM
- effect on intracellular HBV RNA (Northern blot hybridization) (HBV RNA): did not induce a reduction
- EC50 (HBV; [12]): 590 ± 70 nM
- EC50 (HBV; Hepatitis B virus, 2.2.15 cells, Table 3 experiment, read-out: HBV R.I. EC50): 730 ± 60 nM
- EC90 (HBV; Hepatitis B virus, 2.2.15 cells, Table 3 experiment, read-out: HBV R.I. EC90): 2200 ± 300 nM
- EC50 (HBV; Hepatitis B virus, 2.2.15 cells, Table 3 experiment, read-out: Virion production EC50): 190 ± 20 nM
- EC90 (HBV; Hepatitis B virus, 2.2.15 cells, Table 3 experiment, read-out: Virion production EC90): 580 ± 40 nM
- EC50 (HBV; [13]): 120 ± 20 nM
- EC50 (HBV Mutant L180M; Hepatitis B virus, Huh-7): 230 ± 30 nM
- EC90 (HBV Mutant L180M; Hepatitis B virus, Huh-7): 800 ± 90 nM
- EC50 (HBV Mutant L180M/M204V; Hepatitis B virus, Huh-7): 180 ± 20 nM
- EC90 (HBV Mutant L180M/M204V; Hepatitis B virus, Huh-7): 720 ± 90 nM
- EC50 (HBV Mutant M204I; Hepatitis B virus, Huh-7): 310 ± 50 nM
- EC90 (HBV Mutant M204I; Hepatitis B virus, Huh-7): 1000 ± 200 nM
- EC50 (HBV Mutant M204V; Hepatitis B virus, Huh-7): 150 ± 20 nM
- EC90 (HBV Mutant M204V; Hepatitis B virus, Huh-7): 700 ± 80 nM
- EC50 (HBV Mutant N236T; Hepatitis B virus, Huh-7): 280 ± 30 nM
- EC90 (HBV Mutant N236T; Hepatitis B virus, Huh-7): 850 ± 100 nM
- EC50 (HBeAg; read-out: HBeAg EC50, 2.2.15 cells): 260 ± 20 nM
- EC90 (HBeAg; read-out: HBeAg EC90, 2.2.15 cells): 1300 ± 100 nM
- EC50 (HBsAg; read-out: HBsAg EC50, 2.2.15 cells): 220 ± 30 nM
- EC90 (HBsAg; read-out: HBsAg EC90, 2.2.15 cells): 1000 ± 100 nM
- CC50 at 3 days [4]: 49000 ± 1500 nM
- EC50 (Wild-type HBV; Hepatitis B virus, Huh-7): 210 ± 30 nM
- EC90 (Wild-type HBV; Hepatitis B virus, Huh-7, Wild-type, Huh7 transient transfection): 770 ± 90 nM
- detection in plasma [9]: not detected
- EC50 (HCV replication): 200 ± 20 nM
- EC90 (HCV replication): 920 ± 100 nM
- CC50 at 9 days [8]: > 100000 nM
- cytotoxicity in rapidly dividing cultures of 2.2.15 cells (2.2.15 cells; rapidly dividing cultures): 20 ± 1.3 µM
- EC50 (HBcAg; read-out: HBcAg EC50, 2.2.15 cells): 1100 ± 100 nM
- EC90 (HBcAg; read-out: HBcAg EC90, 2.2.15 cells): 3000 ± 200 nM

Compound: Cc1ccc(O)c(C(=O)Nc2ncc(Cl)s2)c1 [RM4850]
- CC50 (AVA5 cells): 2300 ± 200 nM
- EC50 [3]: > 20000 nM
- EC90 [3]: > 20000 nM
- differences in potency against drug-resistant viruses relative to wild-type HBV [10]: No significant differences
- EC50 (HBV; 2.2.15 cells, nine daily doses, read-out: Extracellular virion DNA EC50): 330 ± 70 nM
- EC90 (HBV; 2.2.15 cells, nine daily doses, read-out: Extracellular virion DNA EC90): 830 ± 100 nM
- EC50 (HBV; 2.2.15 cells, nine daily doses, read-out: Intracellular HBV RI EC50): 900 ± 100 nM
- EC50 (HBV Mutant L180M; L180M, read-out: EC50): 830 ± 90 nM
- EC90 (HBV Mutant L180M; L180M, read-out: EC90): 2200 ± 200 nM
- EC50 (HBV Mutant L180M/M204V; L180M/M204V, read-out: EC50): 870 ± 110 nM
- EC90 (HBV Mutant L180M/M204V; L180M/M204V, read-out: EC90): 2100 ± 300 nM
- EC50 (HBV Mutant M204I; M204I, read-out: EC50): 1000 ± 200 nM
- EC90 (HBV Mutant M204I; M204I, read-out: EC90): 2400 ± 300 nM
- EC50 (HBV Mutant M204V; M204V, read-out: EC50): 800 ± 100 nM
- EC90 (HBV Mutant M204V; M204V, read-out: EC90): 2100 ± 300 nM
- EC50 (HBV Mutant N236T; N236T, read-out: EC50): 670 ± 80 nM
- EC90 (HBV Mutant N236T; N236T, read-out: EC90): 2200 ± 200 nM
- EC90 (Wild-type HBV; Wild-type, Huh7 transient transfection): 2000 ± 300 nM
- EC50 (Wild-type HBV; Wild-type, Huh7 transient transfection, read-out: EC50): 730 ± 80 nM
- CC50 (2.2.15 cells; confluent 2.2.15 cultures, nine daily doses, neutral red uptake): > 100000 nM
